Reference: US7652031B2, “Compounds which mimic the chemical and biological properties of discodermolide” (priority 2001, dated 2010)
Like-named read-outs stand apart in the source and are kept apart here.

Tests used:
SKOV3 cells = assay: Cytotoxicity assay, SKOV3 cells; type: cell-based, human
Description: The SKOV3 ovarian carcinoma cell line was obtained from Dr. V. Ling and was maintained as described in McDaid, H. M., et al., “Structure-activity profiles of eleutherobin analogs and their cross-resistance in Taxol-resistant cell lines”, Cancer Chemother. Pharmacol., 1999, 44, 131-137.
(§1) A549 cells were seeded in triplicate at a density of 1×10^4 cells/ml in 6-well plates and allowed to attach for 24 h. After incubation with various drug concentrations for 72 h, adherent cells were trypsinized and counted (Coulter Counter model Z1; Coulter Corp., Miami, Fla.), and the IC50 was determined. SKOV3 cells were seeded at a density of 2×10^4 cells/ml and the above procedure followed.

[1] = system: human carcinoma cell lines; conditions: in cells; cited from earlier work
murine splenocytes [2] = conditions: in vitro, cited from earlier work
A549 cells [3] = assay: Cytotoxicity assay, A549 cells; type: cell-based, human
Description: The A549 lung carcinoma cell line was maintained as described in Kavallaris, M., et al., “Taxol-resistant epithelial ovarian tumors are associated with altered expression of specific β-tubulin isotypes”, J. Clin. Invest., 1997, 100, 1282-1293.
as §1

murine splenocytes [4] = conditions: in vitro; cited from earlier work
[5] = system: microtubule protein (MTP); assay: Electron microscopy of microtubules from the in vitro polymerization assay; type: biochemical, calf; conditions: for Average Polymer Length (μm): microtubule lengths after assembly, minimum of 50 microtubules
Description: Aliquots (50 μL) were taken from the in vitro polymerization assay at the end of the reaction and placed onto 300-mesh carbon-coated, Formavar-treated copper grids. Samples were then stained with 20 μL of 2% uranyl acetate and viewed with a JEOL model 100CX electron microscope. To determine the lengths of the microtubules, electron micrograph negatives were scanned and then analyzed using IP Lab software. Measurements were performed on negatives at ×10000 and ×50000, with a minimum of 50 microtubules measured for each compound.
The microtubule protein from each in vitro assay was examined by electron microscopy to confirm that normal microtubules were formed in the presence of the compounds. In all cases, except for the DMSO control, microtubules were observed. […] Table 1 provides a comparison of microtubule lengths after assembly with Taxol, discodermolide and analogs I-i, I-ii, I-iii, and I-iv.

A549 cells [6] = assay: Flow cytometry (cell cycle), A549 cells; type: cell-based, human; conditions: 24 h
tubulin [7] = conditions: cited from earlier work
F1 recipient mice = conditions: cited from earlier work
[8] = system: microtubule protein (MTP); assay: In vitro tubulin polymerization assay (turbidity at 350 nm); type: biochemical, calf; conditions: for induction of tubulin assembly in the absence of GTP / extent of polymerization after 100 min / initial slope (0-5 min), slope for (+)-discodermolide assigned 1.0: 10 μM; for induction of tubulin assembly in the absence of GTP: 37° C.; for extent of polymerization after 100 min: turbidity; for initial slope (0-5 min), slope for (+)-discodermolide assigned 1.0: first 5 min, relative to (+)-discodermolide; for stability of the microtubules formed against calcium-induced depolymerization: microtubules formed in the presence of the compound
Description: (§2) All drugs were dissolved in sterile DMSO and stored at −20° C. Microtubule protein (MTP) was purified by 2 cycles of temperature-dependent assembly-disassembly from calf brain and stored in liquid nitrogen. See, for example, Welsenberg, R. C., “Microtubule formation in vitro in solutions containing low calcium concentrations”, Science, 1972, 177, 1104-1105.
Microtubule polymerization was evaluated by recording the change in turbidity of MTP at 350 nm for 100 min in a spectrophotometer (UVIKON, Research Instruments Int., San Diego, Calif.). See, for example, Shelanski, M. L., et al., “Microtuble assembly in the absence of added nucleotides”, Proc. Natl. Acad. Sci. USA, 1973, 70, 765-768. Purified MTP was diluted in assembly buffer containing 0.1 M MES, I mM EGTA, 0.5 mM MgCl2, and 3 M glycerol (pH 6.6) to a final concentration of 1 mg/ml. All compounds were evaluated at a concentration of 10 μM at 37° C. in the absence of GTP. The changes in absorption that occurred during the first 5 min were used to plot initial slopes from the linear portion of each curve in order to compare the initial activity of each compound.
The activities of Taxol, (+)-discodermolide, and several structural analogs were determined in the foregoing in vitro tubulin polymerization assay that measures changes in absorbance that correlate with the extent of microtubule polymerization. It will be appreciated that microtubule polymerization involves both nucleation (initiation) and elongation steps. The initial rates of polymerization reflect the nucleation process. See, for example, Gaskin, F., et al. “Turbidimetric studies of the in vitro assembly and disassembly of porcine neurotubules”, J. Mol. Biol., 1974, 89, 737-758.

microtubules = assay: Drug binding competition assay ([3H]Taxol binding to preformed microtubules); design: species or system calf
Description: as §2
The assay was performed using methods described in Bollag, D. M., et al., “Epothilones, a new class of microtubule-stabilizing agents with a Taxol-like mechanism of action”, Cancer-Res., 1995, 55, 2325-2333 and He, L., et al., “A common pharmacophore for Taxol and the epothilones based on the biological activity of a taxane molecule lacking a C-13 side chain”, Biochemistry, 2000, 39, 3972-3978. MTP (0.4 mg/ml) was incubated at 37° C. with 1 mM GTP and […] Taxol for 20 min to induce the assembly of microtubules. One hundred nanomolar [^3H]Taxol (specific activity: 19.3 Ci/mmol) and the indicated concentration of the competing agent were added simultaneously to the preformed microtubules. The mixtures were further incubated at 37° C. for 30 min to allow binding of [^3H]Taxol. Microtubules were collected by ultracentrifugation (100,000 g, 1 hr, 30° C.) and the radioactivity measured using a liquid scintillation counter. The inhibition of binding of [^3H]Taxol to microtubules was expressed as a percentage compared to the control (100%).

A549 cells [9] = assay: Immunofluorescence (microtubules, DNA), A549 cells; type: cell-based, human
Description: In addition, cells were stained with Hoescht solution (Sigma; 1:2.5 dilution) for 15 min after the secondary antibody wash. Slides were analyzed using a Zeiss Axiophot microscope (rhodamine and DAPI filters) at ×100 magnification.

tubulin [10] = conditions: cited from earlier work; remark: listed apart in the source
MCF-7 cells = conditions: cited from earlier work
[11] = (+)-discodermolide 25 nM, analogs at different cytotoxic concentrations

In the case of `C=C/C=C\[C@H](C)[C@H](OC(N)=O)[C@@H](C)[C@H](O)[C@@H](C)C/C(C)=C\[C@H](C)[C@@H](O)[C@@H](C)/C=C\[C@@H](O)C[C@@H]1OC(=O)[C@H](C)[C@@H](O)[C@H]1C` (single isomer, unassigned) [(+)-discodermolide], the IC50 (SKOV3 cells; Homo sapiens, SK-OV-3, 72 h, read-out: SKOV3 (IC50(μm))) is listed as 31.3 ± 6.8 nM, the “less active in SKOV3 compared to A549 cells” value (SKOV3 cells; SKOV3 vs A549) is listed as “approximately 8 fold” and the “cytotoxicity compared with Taxol” value [1] is listed as “less cytotoxic than Taxol”. The “suppression of concanavalin A-induced mitogenesis” value (murine splenocytes [2]) was “suppresses”, the “cytotoxicity associated with the suppression” value (murine splenocytes [2]; mixed-lymphocyte reaction and mitogenesis assays) was “no associated cytotoxicity” and the “inhibition of the proliferation of A549 cells” value (A549 cells [3]) was “inhibited the proliferation of A549 cells”. For the same compound, the IC50 (A549 cells [3]; Homo sapiens, A549, 72 h, read-out: A549 (IC50(μm))) was 3.8 nM, the “suppression of the two-way mixed-lymphocyte reaction” value (murine splenocytes [4]) was “suppresses” and the “microtubule length compared with GTP or Taxol” value ([5]; electron microscopy) was “much shorter microtubules”. The “Average Polymer Length (μm)” value [5] was 0.78 ± 0.3 μm, the “hypodiploid population of cells (apoptosis)” value (A549 cells [6]; 25 nM) was “increase in the hypodiploid population of cells” and the “cell cycle block in G2/M phase” value (A549 cells [6]; [11]) was “blocked in the G2/M phase of the cell cycle”. The “binding affinity compared with Taxol” value (tubulin [7]; listed as 1) was “much higher”, the “binding affinity compared with Taxol” value (tubulin [7]; listed as (+)-discoderrnolide) was “higher affinity for tubulin” and the “potency in graft-vs.-host splenomegaly response” value (F1 recipient mice; compared with cyclosporin A and FK506) was “intermediate between those of cyclosporin A and FK506”. The “suppression of graft-vs.-host splenomegaly response” value (F1 recipient mice; injection of parental splenocytes into F1 recipient mice) was “suppresses”, the “induction of tubulin assembly in the absence of GTP” value [8] was “induced tubutin assembly in the absence of GTP” and the “extent of polymerization after 100 min” value [8] was “essentially the same”. The “initial slope (0-5 min), slope for (+)-discodermolide assigned 1.0” value [8] was 1.0, the “level of polymerization by protein content in the supernatant” value ([8]; end of assay, 100,000 g for 30 min) was “comparable” and the “stability of the microtubules formed against calcium-induced depolymerization” value [8] was “stable against calcium-induced depolymerzation”. The “inhibition of binding of [3H]Taxol to microtubules” value (“inhibition of binding of [3H]Taxol” for short) (microtubules; 1 μM competing agent) was “very similar inhibition”, the “inhibition of binding of [3H]Taxol” value (microtubules; 10 μM competing agent) was “approximately 45%” and the “inhibition of binding of [3H]Taxol” value (microtubules; 100 μM competing agent) was about 95%. For the same compound, the “location of microtubule bundles in the cells” value (A549 cells [9]) was “at the periphery of the cells”, the “microtubule bundles and condensed nuclear DNA” value (A549 cells [9]; [11]) was “Microtubule bundles and condensed nuclear DNA appeared” and the “concentrations at which bundles and condensed DNA were not seen” value (A549 cells [9]; effect seen at 25 nM and above) was “below 12 nM”. The “potency at nucleating tubulin assembly compared to Taxol” value (tubulin [10]) was “more potent” and the “potency at inducing microtubule bundles compared to Taxol” value (MCF-7 cells) was “more potent”.
For `CC(=O)O[C@H]1C(=O)[C@@]2(C)[C@H]([C@H](OC(=O)c3ccccc3)[C@]3(O)C[C@H](OC(=O)[C@H](O)[C@@H](NC(=O)c4ccccc4)c4ccccc4)C(C)=C1C3(C)C)[C@]1(OC(C)=O)CO[C@@H]1C[C@@H]2O` [Taxol], the “Average Polymer Length (μm)” value [5] was 3.3 ± 1.2 μm, the “induction of tubulin assembly in the absence of GTP” value [8] was “induced tubutin assembly in the absence of GTP” and the “extent of polymerization after 100 min” value [8] was “essentially the same”. For the same compound, the “initial slope (0-5 min), slope for (+)-discodermolide assigned 1.0” value [8] was 0.28, the “stability of the microtubules formed against calcium-induced depolymerization” value [8] was “stable against calcium-induced depolymerzation” and the “inhibition of binding of [3H]Taxol” value (microtubules; 1 μM competing agent) was “very similar inhibition”. For the same compound, the “inhibition of binding of [3H]Taxol” value (microtubules; 10 μM competing agent) was “approximately 45%”, the “inhibition of binding of [3H]Taxol” value (microtubules; 100 μM competing agent) was 80% and the “location of microtubule bundles in the cells” value (A549 cells [9]) was “throughout the cells”.
